Results on three compounds are retold here after US20180110799A1, “Compositions and Methods for the Inhibition of Chondrogenesis” (The Children's Hospital of Philadelphia, priority 2014, published 2018).

The subject of one data set is heparanase mRNA. As to the kind of experiment: Semi-quantitative RT-PCR of heparanase mRNA in micromass cultures. Type of data set: cell-based, mouse. The protocol: (§1) Micromass cultures were prepared from the mesenchymal cells of E11.5 mouse embryo limb buds (Ahrens et al. (1979) Dev. Biol., 69:436-50). Dissociated cells were suspended at a concentration of 5×10^6 cells/ml in DMEM containing 3% fetal bovine serum and antibiotics. Micromass cultures were initiated by spotting 20 μl of the cell suspensions (1.5×10^5 cells) onto the surface of 24-well tissue culture dishes. After a 90-minute incubation at 37° C. in a humidified CO2 incubator to allow for cell attachment, the cultures were supplied with 0.25 ml of medium. After 24 hours, medium supplemented with the indicated concentrations of Surfen (bis-2-methyl-4-aminoquinolyl-6-carbamide), bacterial heparitinase III (Sigma), recombinant human BMP2 (R&D Systems), recombinant human heparanase, or roneparstat (Sigma-Tau Research S.A.). Fresh reagents (drug and/or protein) were given with medium change every other day. Equivalent amounts of vehicle were added to control cultures. Cultures were stained with Alcian blue (pH 1.0) after four and six days to monitor chondrogenic cell differentiation by standard methods. […]
(§2) Total RNA was extracted from cells by the guanidine phenol method using TRIzol® reagent (Invitrogen) according to the manufacturer's protocols and measured using a NanoDrop. […] Band intensities were quantified by computer-assisted image analysis (ImageQuant™ TL, GE Healthcare).

For data set [1], the system named is endogenous heparanase. As to the kind of experiment: Immunoblot of endogenous heparanase protein in micromass cultures. Type of data set: cell-based, mouse.
Method: ATDC5 cells were grown to 100% confluence in 6-well plates and treated with indicated concentrations of Surfen, bis-2-methyl-4-amino-quinolyl-6-carbamide. […] The membranes were re-blotted with antibodies to α-tubulin (Sigma T-5168, 1:2000) for normalization, and band intensities were quantified by computer-assisted image analysis.
Data set [2] concerns endogenous heparanase. As to the kind of experiment: Immunoblot of endogenous heparanase protein in ATDC5 cultures. Type of data set: cell-based, mouse. The following applies: compared with the micromass response. Here is the method:
ATDC5 cells, derived from mouse embryonal carcinoma, were cultured in 10 cm dishes with a 1:1 mixture of Dulbecco's modified Eagle's medium and Ham's F-12 (Life Technologies) supplemented with 5% fetal bovine serum (ATCC), 10 μg/ml human transferrin (Mediatech), […] sodium selenite (Mediatech), and 20 μg/ml insulin at 37° C. under 5% CO2. Experiments were conducted once cells reached confluence.
ATDC5 cells were grown to 100% confluence in 6-well plates and treated with indicated concentrations of Surfen, bis-2-methyl-4-amino-quinolyl-6-carbamide. Micromass cultures were treated with control vehicle, Surfen, human heparanase, roneparstat, or rhBMP2. At specified time points, total cellular proteins were harvested in SDS-PAGE sample buffer, electrophoresed on 4-15% SDS-Bis-Tris gels (40 μg per lane) and transferred to PVDF membranes (Invitrogen). Membranes were incubated overnight at 4° C. with dilutions of antibodies against phospho-Smad1/5/8 (Cell Signaling Technology 9511, 1:1000), Smad1 (Abcam 63439, 1:500) or human heparanase (Abcam 59787, 1:750). Enhanced chemiluminescent immunoblotting detection system (Pierce) was used to detect the antigen antibody complexes. The membranes were re-blotted with antibodies to α-tubulin (Sigma T-5168, 1:2000) for normalization, and band intensities were quantified by computer-assisted image analysis.
For orientation: Immunoblotting shows a protein as a band on a membrane.

Data set [3] relates to ADTC5 chondrogenic cell line. Particulars: Brown et al. 2008; cited from earlier work.
For data set [4], the system named is mesenchymal cells of E11.5 mouse embryo limb buds. As to the kind of experiment: Cell number, density and whole cellular RNA/DNA content of micromass cultures. In kind it is cell-based. Here is the method:
as §1, with “methods. Micromass analysis was performed using ImageJ.” for “methods.”
(§3) ATDC5 cells were treated at day 0 with human heparanase (400 ng/ml) or a vehicle control. […] DNA isolation was performed using TRIzol® reagent (Invitrogen) according to the manufacturer's protocols and measured using a NanoDrop (ThermoScientific). ATDC5 migration was analyzed via a scratch test. […] The open scratch area was quantified with ImageJ (n=6/treatment group). In micromass cultures, migration was determined by expansion of the micromass itself from day 0 to day 4 or 6. The diameters of untreated micromasses (n=10) were measured and averaged for a baseline size. […]
as §2

Data set [5] deals with myeloma and sarcoma cells. Particulars: mouse models; Ritchie 2011, Cassinelli 2013; cited from earlier work.
The next data set concerns the target T1, heparanase (Homo sapiens, UniProt Q9Y251).
T1 sequence (Q9Y251 158-543 limits assumed): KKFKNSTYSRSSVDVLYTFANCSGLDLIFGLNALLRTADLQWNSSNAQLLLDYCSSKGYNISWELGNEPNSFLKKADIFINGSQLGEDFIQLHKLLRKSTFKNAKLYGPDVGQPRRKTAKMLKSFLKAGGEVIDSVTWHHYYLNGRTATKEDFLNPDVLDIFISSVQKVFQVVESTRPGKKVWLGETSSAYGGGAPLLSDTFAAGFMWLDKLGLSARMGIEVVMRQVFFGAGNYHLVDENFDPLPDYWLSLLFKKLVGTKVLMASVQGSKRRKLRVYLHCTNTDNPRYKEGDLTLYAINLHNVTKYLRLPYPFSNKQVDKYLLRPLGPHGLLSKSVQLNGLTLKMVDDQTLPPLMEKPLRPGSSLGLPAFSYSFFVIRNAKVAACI
T1 sequence (Q9Y251 36-109 limits assumed): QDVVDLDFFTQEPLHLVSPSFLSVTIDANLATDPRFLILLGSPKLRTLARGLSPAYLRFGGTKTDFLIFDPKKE
Particulars: Ritchie et al. 2011; cited from earlier work.

In data set [6] the test system is mesenchymal cells of E11.5 mouse embryo limb buds. As to the kind of experiment: Micromass diameter (proliferation/migration of peripheral cells). Type of data set: cell-based. Particulars: day 4 and day 6. The protocol: as §1, with “S.A.).” for “S.A.). Fresh reagents (drug and/or protein) were given with medium change every other day. Equivalent amounts of vehicle were added to control cultures. Cultures were stained with Alcian blue (pH 1.0) after four and six days to monitor chondrogenic cell differentiation by standard methods.”
as §3

In data set [7] the test system is collagen II (ColII), aggrecan (Agg) and Runx2. As to the kind of experiment: Semi-quantitative RT-PCR of chondrogenic marker genes in micromass cultures. Type of data set: cell-based, mouse. Particulars: micromass day 4 and 6. Here is the method:
(§4) Micromass cultures were prepared from the mesenchymal cells of E11.5 mouse embryo limb buds (Ahrens et al. (1979) Dev. Biol., 69:436-50). Dissociated cells were suspended at a concentration of 5×10^6 cells/ml in DMEM containing 3% fetal bovine serum and antibiotics. Micromass cultures were initiated by spotting 20 μl of the cell suspensions […] onto the surface of 24-well tissue culture dishes. After a 90-minute incubation at 37° C. in a humidified CO2 incubator to allow for cell attachment, the cultures were supplied with 0.25 ml of medium. After 24 hours, medium supplemented with the indicated concentrations of Surfen (bis-2-methyl-4-aminoquinolyl-6-carbamide), bacterial heparitinase III (Sigma), recombinant human BMP2 (R&D Systems), recombinant human heparanase, or roneparstat (Sigma-Tau Research S.A.). Fresh reagents (drug and/or protein) were given with medium change every other day. Equivalent amounts of vehicle were added to control cultures. Cultures were stained with Alcian blue (pH 1.0) after four and six days to monitor chondrogenic cell differentiation by standard methods. Micromass analysis was performed using ImageJ. Images were made binary under an RGB threshold, and “Particle Analysis” was utilized to measure nodule size, number, and Alcian blue positive area.
Total RNA was extracted from cells by the guanidine phenol method using TRIzol® reagent (Invitrogen) according to the manufacturer's protocols and measured using a NanoDrop. One μg of total RNA was reverse transcribed using the SuperScript® III First-Strand Synthesis System (Life Technologies). Band intensities for semiquantitative PCR were normalized to GAPDH and compared while band intensities and cycle numbers were linear. […] Band intensities were quantified by computer-assisted image analysis (ImageQuant™ TL, GE Healthcare).

The conditions of data set [8]: mouse models of diabetic nephropathy; cited from earlier work.
The conditions of data set [9]: literature; cited from earlier work.
The test system of data set [10] is mesenchymal cells of E11.5 mouse embryo limb buds. As to the kind of experiment: Limb bud micromass chondrogenesis, alcian blue staining. In kind it is cell-based. The following applies: three concentrations up to 20 μg/ml; dose-dependent; day 4 and 6. Here is the method:
as §4

Consider `Cc1cc(N)c2cc(NC(=O)Nc3ccc4nc(C)cc(N)c4c3)ccc2n1` [Surfen, bis-2-methyl-4-aminoquinolyl-6-carbamide], for which, in the data set on heparanase mRNA, the “heparanase mRNA amounts” value is on record as “increased”. Also, the “increase of endogenous heparanase protein levels” value in the data set with endogenous heparanase [1] (7.5 μM, limb micromass cultures, immunoblot densitometry) is recorded as “about 8 fold”. For the same compound, the “endogenous heparanase protein levels in ADTC5 cell cultures” value in the data set on endogenous heparanase [2] is given as “very similar response”.

Take PI-88: the “alcian blue staining and cartilage gene expression” value in data set [3] is “only modest reductions”.

Consider roneparstat, for which, in [4] (after treatment of micromass cultures), the “overall cell number and density (hematoxylin counterstaining)” value was “had not changed significantly”. Moreover, the “whole cellular RNA and DNA content, treated vs untreated” value in data set [4] (day 4 and day 6) was “remained similar”. Besides, the “whole cellular RNA and DNA content” value in [4] (maximal 20 μg/ml dose) is reported as “minor decreases”. The “growth of myeloma and sarcoma cells and concomitant angiogenesis” value in [5] was “interfere with the growth”. The “inhibitory activity on heparanase” value at heparanase is given as “very strong inhibitory activity”. Moreover, the “overall diameter of micromass cultures vs control” value in [6] is given as “reduced the overall diameter”. Further, in data set [7], the “expression of Runx2” value is listed as “dose-dependently inhibited”, the “expression of aggrecan (Agg)” value is “dose-dependently inhibited” and the “expression of collagen II (ColII)” value was “dose-dependently inhibited”. For the same compound, the “levels of endogenous heparanase vs untreated control cultures” value in the data set with endogenous heparanase [1] (micromass cultures, immunoblot) is reported as “reduced”. Also, the “extent of albuminuria and renal damage” value in data set [8] was “markedly decreases”. For the same compound, in data set [9], the anticoagulant properties result is recorded as “without anticoagulant properties”. Moreover, in data set [10], the “formation of alcian blue-positive chondrogenic nodules” value is given as “strongly reduced”.
